Laboratory results as given in patent US11613542B2, “Sulfonylureas and sulfonylthioureas as NLRP3 inhibitors” (Inflazome Limited, priority 2017, dated 2023).
pIC50: −log10 of the molar value. Where a name gives a salt, the structure may show the parent alone.

Experiments:
NLRP3 = NLRP3 (Homo sapiens, UniProt Q96P20); experiment: THP-1 cells pyroptosis assay; type: cell-based; design: Seed THP-1 cells (25,000 cells/well) containing 1.0 μg/ml LPS; host or cells: THP-1 cells, LPS-primed, nigericin-stimulated; settings: THP-1 cells, 1.0 μg/ml LPS, compound 3 hrs, nigericin 5 μM 1 hr, resazurin readout; read-out: THP IC50
Chain of NLRP3 (Q96P20 whole entry): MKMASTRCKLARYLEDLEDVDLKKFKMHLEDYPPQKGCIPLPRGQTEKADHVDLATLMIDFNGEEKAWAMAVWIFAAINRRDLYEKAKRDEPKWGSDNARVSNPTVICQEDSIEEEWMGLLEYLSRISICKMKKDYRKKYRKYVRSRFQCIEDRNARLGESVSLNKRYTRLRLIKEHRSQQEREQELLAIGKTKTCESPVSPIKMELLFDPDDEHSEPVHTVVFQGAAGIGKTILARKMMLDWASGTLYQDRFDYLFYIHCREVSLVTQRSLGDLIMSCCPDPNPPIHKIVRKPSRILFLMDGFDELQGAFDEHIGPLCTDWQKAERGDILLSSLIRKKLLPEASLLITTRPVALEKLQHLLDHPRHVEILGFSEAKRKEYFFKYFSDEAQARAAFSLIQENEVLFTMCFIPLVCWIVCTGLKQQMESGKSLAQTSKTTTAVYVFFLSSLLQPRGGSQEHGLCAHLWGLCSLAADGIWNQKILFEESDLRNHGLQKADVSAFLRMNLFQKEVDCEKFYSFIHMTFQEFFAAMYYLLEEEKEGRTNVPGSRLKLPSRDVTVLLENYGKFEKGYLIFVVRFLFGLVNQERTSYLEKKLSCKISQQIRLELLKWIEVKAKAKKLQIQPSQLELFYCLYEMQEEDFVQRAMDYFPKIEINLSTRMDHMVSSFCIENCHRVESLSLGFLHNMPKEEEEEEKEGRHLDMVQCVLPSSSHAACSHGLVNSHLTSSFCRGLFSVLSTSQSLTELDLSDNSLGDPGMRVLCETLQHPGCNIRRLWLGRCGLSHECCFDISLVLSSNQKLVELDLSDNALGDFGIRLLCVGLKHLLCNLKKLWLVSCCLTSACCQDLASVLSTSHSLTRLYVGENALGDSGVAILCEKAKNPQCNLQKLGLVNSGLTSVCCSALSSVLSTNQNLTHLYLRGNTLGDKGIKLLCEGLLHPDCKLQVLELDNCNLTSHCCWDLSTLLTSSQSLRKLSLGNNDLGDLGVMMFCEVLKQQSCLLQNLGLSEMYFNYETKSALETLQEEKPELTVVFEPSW
Source text: NLRP and Pyroptosis It is well established that the activation of NLRP3 leads to cell pyroptosis and this feature plays an important part in the manifestation of clinical disease (Yan-gang Liu et al., Cell Death &Disease, 2017, 8(2), e2579; Alexander Wree et al., Hepatology, 2014, 59(3), 898-910; Alex Baldwin et al., Journal of Medicinal Chemistry, 2016, 59(5), 1691-171; Ema Ozaki et al., Journal of Inflammation Research, 2015, 8, 15-27; Zhen Xie & Gang Zhao, Neuroimmunology Neuroinflammation, 2014, 1(2), 60-65; Mattia Cocco et al., Journal of Medicinal Chemistry, 2014, 57(24), 10366-10382; T. Satoh et al., Cell Death &Disease, 2013, 4, e644). Therefore, it is anticipated that inhibitors of NLRP3 will block pyroptosis, as well as the release of pro-inflammatory cytokines (e.g. […]) from the cell. THP-1 Cells: Culture and Preparation THP-1 cells (ATCC #TIB-202) were grown in RPMI containing L-glutamine (Gibco #11835) supplemented with imM sodium pyruvate (Sigma #S8636) and penicillin (100 units/ml)/streptomycin (0.1 mg/ml) (Sigma #P4333) in 10% Fetal Bovine Serum (FBS) (Sigma #Fo804). The cells were routinely passaged and grown to confluency (˜10^6 cells/ml). On the day of the experiment, THP-1 cells were harvested and resuspended into RPMI medium (without FBS). The cells were then counted and viability (>90%) checked by Trypan blue (Sigma #T8154). Appropriate dilutions were made to give a concentration of 625,000 cells/ml. To this diluted cell solution was added LPS (Sigma #L4524) to give a […] Final Assay Concentration (FAC). 40 μl of the final preparation was aliquoted into each well of a 96-well plate. The plate thus prepared was used for compound screening. THP-1 Cells Pyroptosis Assay The following method step-by-step assay was followed for compound screening. • 1. Seed THP-1 cells (25,000 cells/well) containing 1.0 μg/ml LPS in 40 μl of RPMI medium (without FBS) in 96-well, black walled, clear bottom cell culture plates coated with poly-D-lysine (VWR #734-0317) • 2. Add […] compound (8 points half-log dilution, with 10 μM top dose) or vehicle (DMSO 0.1% FAC) to the appropriate wells • 3. […] Add 5 μl nigericin (Sigma #N7143) (FAC 5 μM) to all wells • 5. […] At the end of the incubation period, spin plates at 300 xg for 3 mins and remove supernatant • 7. Then add 50 μl of resazurin (Sigma #R7017) (FAC 100μ M resazurin in RPMI medium without FBS) and incubate plates for a further 1-2 hrs at 37° C. and 5% CO2 • 8. Plates were read in an Envision reader at Ex 560 nm and Em 590 nm • 9. IC50 data is fitted to a non-linear regression equation (log inhibitor vs response-variable slope 4-parameters) [table]

[1] = Pharmacokinetic parameters in male Sprague Dawley rats (intravenous and oral administration); type: in vivo; settings: rat plasma, dose per compound (mg/kg)
Protocol: Pharmacokinetic parameters were determined in male Sprague Dawley rats (Charles River, UK, 250-350 g; or Vital River Laboratory Animal Technology Co Ltd, Beijing, China, 7-9 weeks old). Animals were individually housed during the study and maintained under a 12 h light/dark cycle. Animals had free access to food and water except that some orally dosed animals were food deprived overnight prior to the study.
For intravenous administration, compounds were formulated as a solution in water or DMSO:PBS [10:90] in 2 mL/kg dosing volume and administered via tail vein. For oral administration, compounds were formulated as a solution in water or DMSO:water [10:90] in 5 mL/kg dosing volume and administered orally.
Serial blood samples (about 120-300 μL) were taken from each animal at each of 8 time-points post dose (0.083, 0.25, 0.5, 1, 2, 4, 8 and 24 h) or at each of 12 time-points post dose (0.03, 0.1, 0.17, 0.25, 0.5, 1, 2, 4, 6, 8,12 and 24 h) or pre-dose and at each of 9 time-points post dose (0.25, 0.5, 1, 2, 4, 6, 8, 12 and 24 h). Samples were held on ice for no longer than 30 minutes before centrifugation (10,000 rpm (8,385 g) for 3 minutes; or 5,696 rpm (3,000 g) for 15 minutes) for plasma generation. Plasma was frozen on dry ice prior to bioanalysis. PK parameters were generated from LC-MS/MS data using Dotmatics or Phoenix WinNonlin 6.3 software.

| pIC50 (NLRP3) | AUC ([1]; intravenous administration) | Cl ([1]; intravenous administration) | T1/2 ([1]; intravenous administration) | Vdss ([1]; intravenous administration) | SMILES | further results |
| --- | --- | --- | --- | --- | --- | --- |
| > 5.00 |  |  |  |  | CC(C)c1cc(F)cc(C(C)C)c1NC(=O)NS(=O)(=O)c1ccn(CCN(C)C)n1 [Example 16, 1-(2-(Dimethylamino)ethyl)-N-((4-fluoro-2,6-diisopropyl-phenyl)carbamoyl)-1H-pyrazole-3-sulfonamide] |  |
| > 5.59 |  |  |  |  | O=C(Nc1c2c(cc3c1CCC3)CCC2)NS(=O)(=O)c1ccn(Cc2ncccn2)n1 [Example 22, N-((1,2,3,5,6,7-Hexahydro-s-indacen-4-yl)carbamoyl)-1-(pyrimidin-2-ylmethyl)-1H-pyrazole-3-sulfonamide] |  |
| > 5.59 |  |  |  |  | CC(C)c1ccc(-c2cncnc2)cc1NC(=O)NS(=O)(=O)c1cc(C(=O)N(C)C)n(C)n1 [Example 134, 3-(N-((2-Isopropyl-5-(pyrimidin-5-yl)phenyl)carbamoyl)sulfamoyl)-N,N,1-trimethyl-1H-pyrazole-5-carboxamide, sodium salt] |  |
| > 6.19 |  |  |  |  | C[C@@H](CN(C)C)n1ccc(S(=O)(=O)NC(=O)Nc2c3c(cc4c2CCC4)CCC3)n1 [Example 203, (S)-1-(1-(Dimethylamino)propan-2-yl)-N-((1,2,3,5,6,7-hexahydro-s-indacen-4-yl)carbamoyl)-1H-pyrazole-3-sulfonamide] |  |
| > 5.59 |  |  |  |  | CC(C)c1cccc(C(C)C)c1NC(=O)NS(=O)(=O)c1cc(C(=O)N(C)CCO)n(C)n1 [Example 173, 3-(N-((2,6-Diisopropylphenyl)carbamoyl)sulfamoyl)-N-(2-hydroxyethyl)-N,1-dimethyl-1H-pyrazole-5-carboxamide] |  |
|  | 182.5 ng·h/mL | 91.3 mL/min/kg | 2.3 h | 2.72 L/kg | CC(C)c1cc(F)cc(C2CCOCC2)c1NC(=O)NS(=O)(=O)c1cc(C(=O)N(C)C)n(C)n1 [Example 133, 3-(N-((4-Fluoro-2-isopropyl-6-(tetrahydro-2H-pyran-4-yl)phenyl)carbamoyl)sulfamoyl)-N,N,1-trimethyl-1H-pyrazole-5-carboxamide, sodium salt] |  |
|  | 353.3 ng·h/mL | 160.9 mL/min/kg | 1.3 h | 10.55 L/kg | CC(C)c1cc(Cl)cc(C(C)C)c1NC(=O)NS(=O)(=O)c1cc(C(=O)N(C)C)n(C)n1 [Example 168, 3-(N-((4-Chloro-2,6-diisopropylphenyl)carbamoyl)sulfamoyl)-N,N,1-trimethyl-1H-pyrazole-5-carboxamide] |  |
|  |  |  |  |  | CC(c1cc(S(=O)(=O)NC(=O)Nc2c3c(cc4c2CCC4)CCC3)nn1C)N(C)C (single isomer, unassigned; enantiomer 2) [Example 90, 5-(1-(Dimethylamino)ethyl)-N-((1,2,3,5,6,7-hexahydro-s-indacen-4-yl)carbamoyl)-1-methyl-1H-pyrazole-3-sulfonamide, Enantiomer 2] | CL/F ([1]; male, Sprague Dawley, oral administration): 6 mL/min/kg; Tmax ([1]; male, Sprague Dawley, oral administration, read-out: Tmax): 0.5 h; AUC ([1]; oral administration): 11115.9 ng·h/mL; Cmax ([1]; oral administration): 5665.0 ng/mL; T1/2 ([1]; oral administration): 1.1 h |
|  | 661.2 ng·h/mL | 25.2 mL/min/kg | 12.1 h | 3.03 L/kg | CC(C)c1cc(F)cc(-c2cnn(C)c2)c1NC(=O)NS(=O)(=O)c1cc(C(=O)N(C)C)n(C)n1 [Example 135, 3-(N-((4-Fluoro-2-isopropyl-6-(1-methyl-1H-pyrazol-4-yl)phenyl)carbamoyl)sulfamoyl)-N,N,1-trimethyl-1H-pyrazole-5-carboxamide, sodium salt] |  |
|  | 259.0 ng·h/mL | 64.9 mL/min/kg | 0.5 h | 0.75 L/kg | CC(C)c1cc(F)cc(-c2cccnc2)c1NC(=O)NS(=O)(=O)c1cc(CN(C)C)n(C)n1 [Example 61, 5-((Dimethylamino)methyl)-N-((4-fluoro-2-isopropyl-6-(pyridin-3-yl)phenyl)carbamoyl)-1-methyl-1H-pyrazole-3-sulfonamide] |  |
|  | 375.4 ng·h/mL | 51.5 mL/min/kg | 1.2 h | 1.14 L/kg | CC(C)c1cc(F)cc(-c2cccc(C#N)c2)c1NC(=O)NS(=O)(=O)c1cc(CN(C)C)n(C)n1 [Example 66, N-((3′-Cyano-5-fluoro-3-isopropyl-[1,1′-biphenyl]-2-yl)carbamoyl)-5-((dimethylamino)methyl)-1-methyl-1H-pyrazole-3-sulfonamide] |  |
|  | 2710.4 ng·h/mL | 10.5 mL/min/kg | 3.8 h | 1.23 L/kg | CCn1nc(S(=O)(=O)NC(=O)Nc2c(-c3ccnc(OC)c3)ccc3c2CCC3)cc1CN(C)C [Example 37, 5-((Dimethylamino)methyl)-1-ethyl-N-((5-(2-methoxypyridin-4-yl)-2,3-dihydro-1H-inden-4-yl)carbamoyl)-1H-pyrazole-3-sulfonamide] |  |
|  | 259.1 ng·h/mL | 65.6 mL/min/kg | 0.5 h | 0.98 L/kg | Cc1cc(-c2cc(F)cc(C(C)C)c2NC(=O)NS(=O)(=O)c2cc(CN(C)C)n(C)n2)n(C)n1 [Example 60, N-((2-(1,3-Dimethyl-1H-pyrazol-5-yl)-4-fluoro-6-isopropylphenyl)carbamoyl)-5-((dimethylamino)methyl)-1-methyl-1H-pyrazole-3-sulfonamide] |  |
|  | 274.4 ng·h/mL | 60.7 mL/min/kg | 6.3 h | 3.95 L/kg | CC(C)c1cc(F)cc(-c2cccnc2)c1NC(=O)NS(=O)(=O)c1cc(C(=O)N(C)C)n(C)n1 [Example 141, 3-(N-((4-Fluoro-2-isopropyl-6-(pyridin-3-yl)phenyl)carbamoyl)sulfamoyl)-N,N,1-trimethyl-1H-pyrazole-5-carboxamide, sodium salt] |  |
|  | 247.8 ng·h/mL | 67.2 mL/min/kg | 0.3 h | 1.32 L/kg | COc1cc(-c2cc(F)cc(C(C)C)c2NC(=O)NS(=O)(=O)c2cc(CN(C)C)n(C(C)C)n2)ccn1 [Example 67, 5-((Dimethylamino)methyl)-N-((4-fluoro-2-isopropyl-6-(2-methoxypyridin-4-yl)phenyl)carbamoyl)-1-isopropyl-1H-pyrazole-3-sulfonamide] |  |
|  | 356.0 ng·h/mL | 47.6 mL/min/kg | 0.5 h | 0.8 L/kg | COc1cc(-c2cc(F)cc(C(C)C)c2NC(=O)NS(=O)(=O)c2cc(CN(C)C)n(C)n2)ccn1 [Example 68, 5-((Dimethylamino)methyl)-N-((4-fluoro-2-isopropyl-6-(2-methoxypyridin-4-yl)phenyl)carbamoyl)-1-methyl-1H-pyrazole-3-sulfonamide] |  |
